Reference: publication PMC5986788, “Succinate induces aberrant mitochondrial fission in cardiomyocytes through GPR91 signaling” (Cell Death & Disease, 2018)

Target: T1, G protein-coupled receptor-91 (GPR91) (Rattus norvegicus, UniProt Q6IYF9)
T1 construct: gene Sucnr1
Test: cell-based

T1 sequence (Q6IYF9 whole entry): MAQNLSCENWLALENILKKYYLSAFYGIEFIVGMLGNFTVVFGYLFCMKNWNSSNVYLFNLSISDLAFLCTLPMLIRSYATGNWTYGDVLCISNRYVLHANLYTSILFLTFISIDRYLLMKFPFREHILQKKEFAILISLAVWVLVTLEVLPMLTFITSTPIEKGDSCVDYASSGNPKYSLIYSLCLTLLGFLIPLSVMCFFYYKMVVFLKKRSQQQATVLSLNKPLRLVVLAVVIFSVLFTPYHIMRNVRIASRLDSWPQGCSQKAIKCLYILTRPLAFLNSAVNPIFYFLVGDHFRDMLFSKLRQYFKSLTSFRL

EC50: 154 µM
SMILES: O=C(O)CCC(=O)O [succinate]
